Measured values published in patent publication EP0624588A1, “New quinoline derivatives with pharmacological activity” (J. URIACH & CIA. S.A., priority 1993, dated 1994).

Tests used:
[1] = test system: LTB₄ production by human granulocytes (HL-60 cells); assay: Inhibition of LTB4 production by human granulocytes; type: cell-based; conditions: differentiated HL-60 cells stimulated by calcium ionophore A23187 (5 x 10⁻⁶M), LTB₄ by EIA, read-out: % inh. of LTB₄ production (at 5 µM)
Protocol: Human promyelocytes (HL-60 cells) are grown in a RPMI 1640 medium suplemented with 20% heat-inactivated fetal bovine serum, 50 U/mL penicillin and 50 µg/mL streptomycin under an atmosphere of 5% CO₂ at 37°C. Cells are exposed to 1.3% DMSO for 5 days in order to differentiate them into mature granulocytes and then are washed and resuspended in Dubelcco's phosphate-buffered saline at 10⁶ cells/mL. HL-60 (10⁶ cells/mL) are incubated for 15 min at 37°C in the presence or absence (vehicle only) of test compound. Cells are then stimulated by calcium ionophore A23187 (5 x 10⁻⁶M) for 15 min. LTB₄ secreted into the external medium is measured by EIA (enzymo immunoassay) using a commercially available LTB₄-EIA kit. Results are expressed as the percent inhibition of LTB₄ production as compared to controls.

[2] = test system: platelet aggregation induced by PAF; assay: Inhibition of platelet aggregation induced by PAF; type: cell-based, New Zealand albino rabbits; conditions: Oryctolagus cuniculus; rabbit platelet rich plasma, PAF (C₁₈) 15 nM, Born nephelometric technique; read-out: IC₅₀
Protocol: Blood is obtained by cardiac puncture of male New Zealand albino rabbits (b.w. 2-2.5 Kg) and coagulation is prevented by adding 1 part of 3.16% sodium citrate dihydrate in 9 parts of blood. Platelet rich plasma (PRP) is prepared by centrifuging the blood at 250xg for 10 min. at 4°C and then it is diluted with platelet poor plasma (PPP) obtained by further centrifuging at 3000xg for 10 min. The platelet count is adjusted to 3x10⁵/mm³. Platelet aggregation induced by PAF (C₁₈, prepared in our laboratory) (15 nM) is determined by the Born nephelometric technique (J. Physiol., 1962, 162, 67) using an aggregometer Chrono-log 500. The activities of the inhibitors are expressed as the IC₅₀ value, that is to say the concentration of drug needed to inhibit platelet aggregation by 50%.

Compound | inhibition at 5 µM [1] | IC50 [2]
Cc1nnc2n1-c1sc3c(c1C(c1ccccc1Cl)=NC2C)CCN(C(=O)c1cccc(OCc2ccc4ccccc4n2)c1)C3 (stereo not drawn) [Compound 1, 6-(2-Chlorophenyl)-1,4-dimethyl-9-[3-(2-quinolylmethoxy)benzoyl]-7,8,9,10-tetrahydro-4H-pyrido[4',3': 4,5]thieno[3,2-f] [1,2,4]triazolo[4,3-a] [1,4]diazepine] | 72% | 32 nM
Cc1nnc2n1-c1sc3c(c1C(c1ccccc1Cl)=NC2C)CCN(C(=O)Cc1ccc(OCc2ccc4ccccc4n2)cc1)C3 (stereo not drawn) [Compound 2, 6-(2-Chlorophenyl)-1,4-dimethyl-9-[4-(2-quinolylmethoxy)phenylacetyl]-7,8,9,10-tetrahydro-4H-pyrido[4',3': 4,5]thieno[3,2-f] [1,2,4]triazolo[4,3-a] [1,4]diazepine] |  | 16 nM
